Results reported in US20210330611A1, “THERAPY FOR NEUROLOGICAL DISEASES/DISORDERS” (priority 2020, published 2021).
pIC50: −log10 of the molar value. Where a name gives a salt, the structure may show the parent alone. Read-outs that look alike come from different tables or passages of the source.

Key:
Type in all cases: cell-based, rat
[1] = test system: fibrin-induced microglia activation; assay: Image-based assay of fibrin-induced microglia activation (HTS and dose response); details: for inhibition at 10 µM: read-out: Fibrin % inhibition
[2] = test system: LPS-induced microglia activation; assay: Image-based assay of LPS-induced microglia activation (HTS and dose response); details: for inhibition at 10 µM: read-out: LPS % inhibition
[3] = test system: fibrin- and LPS-induced microglia activation; assay: cells; details: for Activity: Table 7, fib = fibrin, LPS, tox = toxicity; for inhibition at 10 µM: Rattus norvegicus, Microglia
[4] = Rattus norvegicus, Microglia, primary microglia HTS, fibrin stimulation, compounds at 10 μM
[5] = Rattus norvegicus, Microglia, primary microglia HTS, LPS stimulation, compounds at 10 μM
[6] = quadrant by fibrin and LPS inhibition, HTS at 10 μM
[7] = Rattus norvegicus, Microglia, Table 7, read-out: fib_IC50
[8] = Rattus norvegicus, Microglia, primary microglia HTS, fibrin stimulation, increased cell size (>800 μm^2) as marker of activation
[9] = Rattus norvegicus, Microglia, 48 h, primary microglia HTS, LPS stimulation, increased cell size (>800 μm^2) as marker of activation
[10] = Rattus norvegicus, Microglia, Table 7, read-out: LPS_IC50
[11] = quadrant by fibrin and LPS inhibition in HTS of 1907 compounds
[12] = Rattus norvegicus, Microglia, 48 h
[13] = primary microglia HTS, fibrin stimulation, compounds at 10 μM
[14] = primary microglia HTS, LPS stimulation, compounds at 10 μM
[15] = classification by fibrin and LPS inhibition, HTS at 10 μM
[16] = primary microglia HTS, fibrin stimulation, increased cell size (>800 μm^2) as marker of activation
[17] = primary microglia HTS, LPS stimulation, increased cell size (>800 μm^2) as marker of activation

N.N.[Cl][Pt][Cl] [Cisplatin]
Fibrin % inhibition ([1]; primary HTS, 10 μM, fibrin-stimulated primary microglia): −13%
LPS % inhibition ([2]; primary HTS, 10 μM, LPS-stimulated primary microglia): 20%
Quadrant (FIG. 5b) ([3]; primary HTS, 10 μM): Q4

COc1ccc(C(=O)N2CCCC2=O)cc1 [Aniracetam]
inhibition at 10 µM [1, 4]: 6%
inhibition at 10 µM [2, 5]: 4%
Quadrant (FIG. 5b) [3, 6]: Q4

C/C=C/c1ccc(OC)cc1 [Anethole]
inhibition at 10 µM [1, 4]: -37%
inhibition at 10 µM [2, 5]: 13%
Quadrant (FIG. 5b) [3, 6]: Q4

C[C@]12C=CC(=O)C=C1CC[C@@H]1[C@@H]2[C@@H](O)C[C@@]2(C)[C@H]1CC[C@]2(O)C(=O)CO [Prednisolone, reference compound]
pIC50 [1, 7]: 8.70
inhibition at 10 µM [1, 4]: 97%
inhibition at 10 µM [1, 8]: 114%
inhibition at 10 µM [2, 9]: 100%
pIC50 [2, 10]: 8.70
inhibition at 10 µM [2, 5]: 87%
Quadrant (FIG. 5b) ([3]; Table 2, screen at 10 μM): Q2
Activity [3]: fib/LPS
Quadrant (FIG. 5b) [3, 11]: Q2
Quadrant (FIG. 5b) [3, 6]: Q2

NC(N)=Nc1nc(CSCCC(N)=NS(N)(=O)=O)cs1 [Famotidine]
inhibition at 10 µM ([1]; Rattus norvegicus, Microglia): -82%
inhibition at 10 µM ([2]; Rattus norvegicus, Microglia): 9%
Quadrant (FIG. 5b) [3]: Q4

COC(=O)C1=C(C)NC(C)=C(C(=O)OC)C1c1ccccc1[N+](=O)[O-] [Nifedipine]
inhibition at 10 µM ([1]; Rattus norvegicus, Microglia): -36%
inhibition at 10 µM [2, 12]: 2%
Quadrant (FIG. 5b) [3]: Q4

O.OC[C@H]1O[C@@H](O[C@H]2[C@H](O)[C@@H](O)C(O)O[C@@H]2CO)[C@H](O)[C@@H](O)[C@H]1O (stereo partly drawn) [Lactose Monohydrate]
inhibition at 10 µM ([1]; Rattus norvegicus, Microglia, primary microglia HTS, fibrin stimulation, activation = cell size >800 μm2): -22%
inhibition at 10 µM ([2]; Rattus norvegicus, Microglia, 48 h, primary microglia HTS, LPS stimulation, activation = cell size >800 μm2): 9%
Quadrant (FIG. 5b) [3, 11]: Q4

C[C@@H]([C@H](O)c1ccccc1)N(C)C
Fibrin % inhibition [1, 13]: −52%
LPS % inhibition [2, 14]: 7%
Quadrant (FIG. 5b) [3, 6]: Q4

CCCCc1oc2ccccc2c1C(=O)c1cc(I)c(OCCN(CC)CC)c(I)c1 [Amiodarone]
inhibition at 10 µM ([1]; Rattus norvegicus, Microglia): -4%
inhibition at 10 µM ([2]; Rattus norvegicus, Microglia): 13%
Quadrant (FIG. 5b) [3]: Q4

O=c1c(-c2ccccc2)coc2cc(O)cc(O)c12 [5,7-dihydroxyisoflavone]
pIC50 [1, 7]: 6.76
pIC50 [2, 10]: 7.68
Activity [3]: fib/LPS

CC(C)C[C@H](CN)CC(=O)O [Pregabalin]
inhibition at 10 µM ([1]; Rattus norvegicus, Microglia): -5%
inhibition at 10 µM [2, 12]: 1%
Quadrant (FIG. 5b) [3]: Q4

O=C(O)c1nc2cc(Cl)c(Cl)cc2nc1O
pIC50 [1, 7]: 5.58
pIC50 [2, 10]: ≤ 5.30
Activity [3]: fib/LPS

CN[C@@H](C)[C@H](O)c1ccccc1.Cl [Ephedrine (1r,2s) Hydrochloride]
Fibrin % inhibition [1, 13]: −26%
LPS % inhibition [2, 14]: 10%
Quadrant (FIG. 5b) [3, 15]: Q4

CNCC[C@@H](Oc1ccccc1C)c1ccccc1 [Atomoxetine Hydrochloride]
inhibition at 10 µM [1, 4]: 15%
inhibition at 10 µM [2, 5]: 7%
Quadrant (FIG. 5b) [3, 6]: Q4

COc1ccc2c(c1OC)C(=O)O[C@@H]2[C@H]1c2cc3c(cc2CCN1C)OCO3 [Hydrastine (1r,9s)]
Fibrin % inhibition ([1]; primary microglia HTS, fibrin stimulation, activation = cell size >800 μm2): −27%
LPS % inhibition ([2]; primary microglia HTS, LPS stimulation, activation = cell size >800 μm2): 10%
Quadrant (FIG. 5b) [3, 11]: Q4

CCCNCC(O)COc1ccccc1C(=O)CCc1ccccc1 (stereo not drawn) [Propafenone]
inhibition at 10 µM ([1]; Rattus norvegicus, Microglia): 16%
inhibition at 10 µM [2, 12]: 21%
Quadrant (FIG. 5b) [3]: Q4

CN(N=O)C(=O)N[C@@H](C=O)[C@@H](O)[C@H](O)[C@H](O)CO [Streptozocin]
inhibition at 10 µM ([1]; Rattus norvegicus, Microglia): -30%
inhibition at 10 µM ([2]; Rattus norvegicus, Microglia): 19%
Quadrant (FIG. 5b) [3]: Q4

O=C(O)COC(=O)Cc1ccccc1Nc1c(Cl)cccc1Cl [Aceclofenac]
inhibition at 10 µM [1, 4]: -2%
inhibition at 10 µM [2, 5]: 8%
Quadrant (FIG. 5b) [3, 6]: Q4

OC[C@H]1O[C@H](O[C@H]2[C@H](O)[C@@H](O)C(O)O[C@@H]2CO)[C@H](O)[C@@H](O)[C@@H]1O (stereo partly drawn) [D-(+)-maltose]
Fibrin % inhibition [1, 13]: −7%
LPS % inhibition [2, 14]: 14%
Quadrant (FIG. 5b) [3, 15]: Q4

C[C@@H]1C[C@H]2[C@@H]3C[C@H](F)C4=CC(=O)C=C[C@]4(C)[C@@]3(F)[C@@H](O)C[C@]2(C)[C@@]1(O)C(=O)CO [Flumethasone, reference compound]
pIC50 ([1]; Rattus norvegicus, Microglia, 48 h, read-out: Fibrin IC50): > 9.00
inhibition at 10 µM ([1]; Rattus norvegicus, Microglia): 109%
IC50 ([1]; Rattus norvegicus, Microglia, read-out: Fibrin IC50 (uM)): < 0.001 µM
IC50 ([1]; Rattus norvegicus, Microglia, read-out: Fibrin IC50 (uM) (Suppl. Table 7)): < 0.001 µM
inhibition at 10 µM [2, 12]: 101%
pIC50 ([2]; Rattus norvegicus, Microglia, 48 h, read-out: LPS IC50): > 9.00
IC50 ([2]; Rattus norvegicus, Microglia, read-out: LPS IC50 (uM)): < 0.001 µM
IC50 ([2]; Rattus norvegicus, Microglia, read-out: LPS IC50 (uM) (Suppl. Table 7)): < 0.001 µM
Quadrant (FIG. 5b) [3]: Q2
inhibition at 10 µM ([3]; read-out: Cherry-picked Hit (Suppl. Table 7)): > 50%
inhibition at 10 µM ([3]; read-out: Hit): > 50%

CC(C)(C(=O)O)c1ccc(C(O)CCCN2CCC(C(O)(c3ccccc3)c3ccccc3)CC2)cc1 (stereo not drawn) [Fexofenadine]
inhibition at 10 µM ([1]; Rattus norvegicus, Microglia): 13%
inhibition at 10 µM [2, 12]: 14%
Quadrant (FIG. 5b) [3]: Q4

CCn1cc(C(=O)O)c(=O)c2cc(F)c(N3CCNC(C)C3)c(F)c21 (stereo not drawn) [Lomefloxacin]
inhibition at 10 µM ([1]; Rattus norvegicus, Microglia): 7%
inhibition at 10 µM [2, 12]: 15%
Quadrant (FIG. 5b) [3]: Q4

C=C[C@@]1(C)CC(=O)[C@]2(O)[C@@]3(C)[C@@H](O)CCC(C)(C)[C@@H]3[C@H](O)[C@H](OC(C)=O)[C@@]2(C)O1 [colforsin]
pIC50 [1, 7]: 5.68
pIC50 [2, 10]: 5.87
Activity [3]: fib/LPS

Medroxyprogesterone [reference compound]
pIC50 ([1]; Table 1, dose response 0.001-20 μM, triplicates, primary rat microglia, 48 h, read-out: Fibrin IC50): < 4.70
pIC50 ([1]; dose response, fibrin-induced microglia activation, read-out: Fibrin IC50): < 4.70
IC50 ([1]; fibrin-induced microglia activation, dose response, read-out: Fibrin IC50 (uM) (Suppl. Table 7)): > 20 µM
Fibrin % inhibition [1, 16]: 61%
IC50 ([2]; LPS-induced microglia activation, dose response, read-out: LPS IC50 (uM) (Suppl. Table 7)): 8 µM
pIC50 ([2]; Table 1, dose response 0.001-20 μM, triplicates, primary rat microglia, 48 h, read-out: LPS IC50): 5.10
pIC50 ([2]; dose response, LPS-induced microglia activation, read-out: LPS IC50): 5.10
LPS % inhibition [2, 17]: 6%
Quadrant (FIG. 5b) ([3]; HTS of 1907 compounds, quadrant by fibrin and LPS inhibition): Q3
Quadrant (FIG. 5b) ([3]; Table 1, screen at 10 μM): Q3
Quadrant (FIG. 5b) [3, 11]: Q3

COc1cccc2c1C(=O)c1c(O)c3c(c(O)c1C2=O)C[C@@](O)(C(=O)CO)C[C@@H]3O[C@H]1C[C@H](N)[C@H](O)[C@H](C)O1 [Doxorubicin]
inhibition at 10 µM [1, 8]: 106%
inhibition at 10 µM [2, 9]: 108%
Quadrant (FIG. 5b) [3, 11]: Q2

COc1cc([C@@H]2c3cc4c(c(O)c3C[C@H]3COC(=O)[C@@H]32)OCO4)cc(OC)c1OC [beta-peltatin]
fib_HS ([1]; Hill slope of fibrin dose response, Table 7): −2.10
fib specificity ([1]; Table 7): 0.5
pIC50 ([1]; Table 7, read-out: fib_IC50): 6.30
LPS_HS ([2]; Hill slope of LPS dose response, Table 7): −1.50
LPS specificity ([2]; Table 7): 2.0
pIC50 ([2]; Table 7, read-out: LPS_IC50): 6.60
Activity [3]: fib/LPS

C#CC(C)(O)CC (stereo not drawn) [Meparfylon]
Fibrin % inhibition [1, 16]: −49%
LPS % inhibition [2, 17]: 3%
Quadrant (FIG. 5b) [3, 11]: Q4

NCCCC[C@H](N[C@@H](CCc1ccccc1)C(=O)O)C(=O)N1CCC[C@H]1C(=O)O [Lisinopril]
inhibition at 10 µM ([1]; Rattus norvegicus, Microglia): 1%
inhibition at 10 µM [2, 12]: 3%
Quadrant (FIG. 5b) [3]: Q4

O=C(CCCN1CCN(c2ccccn2)CC1)c1ccc(F)cc1 [Azaperone]
inhibition at 10 µM [1, 4]: -4%
inhibition at 10 µM [2, 5]: 12%
Quadrant (FIG. 5b) [3, 6]: Q4
